Measurements reported in paper PMC10618445, “Eucalyptus torquata L. flowers: a comprehensive study reporting their metabolites profiling and anti-gouty arthritis potential” (Scientific Reports, 2023).

Tests used:
[1] = Ferric reducing power assay (FRAP); conditions: mean ± SD, triplicate
Protocol: DPPH radical scavenging, ABTS radical scavenging and FRAP assays were done according to Dudonne et al.[19] method minor modifications. The details are mentioned in the supplementary file. The ferric reducing power of the extract was determined using the method reported previously by Dudonne, et al., 2009 [1]. The reduction is monitored by measuring the change of absorbance at 593 nm. […] A standard curve was prepared using various concentrations of FeSO4 .7H2O. All solutions were used on the day of preparation. A 100 µL of the sample solution and 300 μL of deionized water were added to 3 mL of freshly prepared FRAP reagent. The reaction mixture was incubated in a water bath for 30 min at 37 °C. The difference between sample absorbance and blank absorbance was calculated and used to calculate the FRAP value. All measurements were done in triplicate and the EC50 was calculated. Ascorbic acid is used as standard.

[2] = ABTS radical scavenging assay; conditions: mean ± SD, triplicate
Protocol: DPPH radical scavenging, ABTS radical scavenging and FRAP assays were done according to Dudonne et al.[19] method minor modifications. The details are mentioned in the supplementary file. Briefly, 200 µL of the reaction mixture containing 10 µL extract/ standard at different concentrations (0.1575 - 1 mg/mL) was added to 2,2′-Azino-bis(3-ethylbenzothiazoline-6-sulfonic acid (ABTS) solution (190 µL) then measured at 734 nm in 96 well-plates. The ABTS solution was composed as follows; 5 mL of 14 mM ABTS dissolved in methanol added to 5 mL solution of 4.9 mM potassium persulfate, and subsequently stored for 16 h at room temperature in dark. This solution was diluted with methanol till the absorbance was 0.700.

[3] = DPPH radical scavenging assay; conditions: mean ± SD, triplicate
Protocol: DPPH radical scavenging, ABTS radical scavenging and FRAP assays were done according to Dudonne et al.[19] method minor modifications. The details are mentioned in the supplementary file. Briefly, 20 μL of the diluted concentrations of ETME/ standard (0.1575 - 1 mg/mL) were added to 200 μL of 2,2-diphenyl-1-picrylhydrazyl (DPPH) in a 96 well-plate and the absorbance was measured at 517 nm after incubation for 30 min [1] using ascorbic acid as standard. […] was determined using the equation; [(Ac – As) / Ac] × 100. In which, Ac was the control absorbance (DPPH solution without the tested sample) while As was the sample absorbance (DPPH solution in addition to the extract or standard).

[4] = system: red blood cell membranes; test: Membrane stabilization; type: cell-based; conditions: mean ± SD, triplicate
Protocol: (§1) Albumin denaturation inhibition was evaluated using the previously described method. Membrane stabilization and proteinase inhibitory potentials were evaluated using the previously reported method. Diclofenac was used as the reference drug. All the experiments were performed in triplicate.
Denaturation of tissue proteins is well documented in the pathogenesis of inflammatory events like arthritis. The protection against protein denaturation is one of NSAIDs mechanisms of action. In addition, red blood cell hemolysis inhibition may provide insights into the process of inflammation. Stabilization of the red blood cell membranes may delay or prevent the lysis and the consequent cytoplasmic contents release and the inflammatory response. So, plants that can interfere with these responses could be very useful for developing novel anti-arthritic drugs. Natural extracts from other Eucalyptus species produced similar albumin denaturation and cell membrane stabilization activities including E. obliqua leaves, E. sideroxylon bark[9] and E. globulus leaves.

[5] = system: protease; test: Protease (proteinase) inhibitory activity; type: biochemical; conditions: mean ± SD, triplicate
Protocol: as §1

[6] = system: U937 human monocytes; test: Histamine release inhibitory activity (PMA-treated cells, ELISA); type: cell-based; conditions: 20 nM PMA, 1 h, mean ± SD
Protocol: U937 human monocytes (ATCC, Manassas, VA, USA) were used to study the effect of the extract on histamine release. U937 cells (50,000 cells) were plated in a 96-well plate and treated with various concentration (1000–7.81 µg/mL) of the extract, in presence or absence of 20 nM phorbol myristate acetate (PMA) for 1 h. The cell culture supernatants collected from either untreated control or treated cultures were centrifuged at 10,000 g for 5 min at 4 °C and assessed for the released histamine by the commercially available ELISA kit. Diclofenac was used as the positive control.

[7] = system: 5-lipoxygenase (5-LOX); test: 5-lipoxygenase inhibitory assay (lipoxygenase inhibitor screening kit); type: biochemical; conditions: mean ± SD, triplicate
Text: (§2) Methanol, DPPH (2,2-diphenyl-1-picrylhydrazyl), ABTS (2,2′-Azino-bis (3-ethylbenzothiazoline-6-sulfonic acid)), TPTZ (2,4,6-tri(2-pyridyl)-s-triazine), ascorbic acid, hyaluronic acid (human umbilical cord), sodium hydroxide, hyaluronidase (bovine testes), calcium chloride, p-dimethylaminobenzaldehyde (PDMAB), and sodium borate were purchased from Sigma-Aldrich (USA). COX (ovine) and LOX inhibitor screening assay kits (Cayman Chemical Company, MI, USA), 96-well cell culture plate (Corning Life Sciences, Lowell, MA, USA), PMA (Sigma-Aldrich, St. Luis, MO, USA), and histamine release assay kit (SPI-Bio, France) were used.
The COX inhibitory activity was assayed using Cayman colorimetric COX (ovine) inhibitor screening assay kit, according to the manufacturer’s instructions. The selectivity index (S.I.) was then calculated as IC50 (COX-1)/IC50 (COX-2). In vitro 5-lipoxygenase (5-LOX) inhibitory assay was carried out using lipoxygenase inhibitor screening assay kit, according to the manufacturer’s instructions. Diclofenac sodium was used as a reference drug.

[8] = system: tyrosinase; test: Tyrosinase inhibition assay with L-DOPA as substrate; type: biochemical; conditions: mean ± SD
Protocol: Tyrosinase inhibition assay was performed with L-DOPA as substrate adopting the previously described method. Detailed procedures are described in the supplementary file.
Tyrosinase inhibition assay was performed with L-DOPA as substrate adopting the method reported in [3]. In a 96-plate, 685 μL of phosphate buffer (0.05 M, pH 6.5), 15 μL of tyrosinase enzyme (2500 U /mL), 200 μL of ETME (7.81–1000 µg/mL) and 100 μL of 5 mM/L L-DOPA were added. The absorbance was immediately monitored at 492 nm. Kojic acid was used as the positive control. The assay was made in triplicate. The percentage inhibition was calculated as follows: % of inhibition = (Acontrol/Atested sample)/ Acontrol) x 100. Where, Acontrol is the absorbance without the addition of the inhibitor and Asample is the absorbance after adding the standard.

[9] = biological target: xanthine oxidase (XO) (Bos taurus, UniProt P80457); test: Xanthine oxidase (XO) inhibitory activity; type: biochemical; conditions: mean ± SD, triplicate; read-out: Xanthine oxidase IC50/EC50 (converted)
Chain of xanthine oxidase (XO) (P80457 whole entry): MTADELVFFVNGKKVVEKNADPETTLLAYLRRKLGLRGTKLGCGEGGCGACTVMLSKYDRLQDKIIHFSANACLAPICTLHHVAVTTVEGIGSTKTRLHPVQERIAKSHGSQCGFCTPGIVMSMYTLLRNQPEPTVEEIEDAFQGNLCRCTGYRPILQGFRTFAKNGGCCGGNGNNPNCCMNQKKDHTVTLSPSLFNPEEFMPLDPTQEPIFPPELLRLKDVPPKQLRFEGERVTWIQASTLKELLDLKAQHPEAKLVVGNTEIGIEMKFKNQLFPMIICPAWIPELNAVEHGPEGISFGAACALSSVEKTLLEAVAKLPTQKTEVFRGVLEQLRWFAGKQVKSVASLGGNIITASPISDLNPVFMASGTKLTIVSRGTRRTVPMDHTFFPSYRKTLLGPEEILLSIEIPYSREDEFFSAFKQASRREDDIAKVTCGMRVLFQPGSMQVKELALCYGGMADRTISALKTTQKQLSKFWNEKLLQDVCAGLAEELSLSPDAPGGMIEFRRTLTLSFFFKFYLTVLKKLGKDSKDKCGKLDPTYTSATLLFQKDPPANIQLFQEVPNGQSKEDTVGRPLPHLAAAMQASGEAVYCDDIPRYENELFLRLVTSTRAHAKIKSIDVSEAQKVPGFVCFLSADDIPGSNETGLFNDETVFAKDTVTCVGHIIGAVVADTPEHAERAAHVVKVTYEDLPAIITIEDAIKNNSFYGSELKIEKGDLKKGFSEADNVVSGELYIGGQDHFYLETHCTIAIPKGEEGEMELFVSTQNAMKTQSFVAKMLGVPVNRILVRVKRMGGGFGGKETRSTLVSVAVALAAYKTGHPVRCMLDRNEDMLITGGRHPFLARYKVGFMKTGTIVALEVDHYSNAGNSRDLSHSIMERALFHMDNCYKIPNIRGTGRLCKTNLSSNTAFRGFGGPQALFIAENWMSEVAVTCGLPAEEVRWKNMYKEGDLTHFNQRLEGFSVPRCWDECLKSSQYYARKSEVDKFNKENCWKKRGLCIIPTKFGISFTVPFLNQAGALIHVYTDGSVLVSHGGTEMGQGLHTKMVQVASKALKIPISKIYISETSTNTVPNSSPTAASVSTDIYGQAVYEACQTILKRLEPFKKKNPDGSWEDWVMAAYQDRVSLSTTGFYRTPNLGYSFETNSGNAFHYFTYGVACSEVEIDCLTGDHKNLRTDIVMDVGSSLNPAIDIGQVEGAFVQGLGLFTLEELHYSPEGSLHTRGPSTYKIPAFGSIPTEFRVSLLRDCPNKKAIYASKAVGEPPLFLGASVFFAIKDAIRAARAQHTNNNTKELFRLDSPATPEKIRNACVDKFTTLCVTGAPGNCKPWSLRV
Protocol: The XO inhibitory activity was assayed following the protocol reported in[22]. Detailed procedures are described in the supplementary file. The XO inhibitory activity was assayed following the protocol reported in [2]. Five hundred µL of different concentrations of ETME/ standard (10- 100 µg/mL) were added to the enzyme solution (1.3 mL of phosphate buffer at concentration of 65 mM and pH 7.4 containing 0.28 U/mL of XO). Then the mixture was incubated for 10 min at 30 ℃. Next, 1.4 mL of the substrate xanthine (0.6 mM) was added to the mixture. The absorbance was measured at every minute for 10 min at 295 nm. Allopurinol was used as the standard drug. The percentage inhibition of XO was calculated as: % inhibition = (1 – Absorbance of sample/ Absorbance of blank) x 100. The IC50 value was calculated from the calibration curve.

[10] = system: hyaluronidase (bovine testes); test: Hyaluronidase inhibitory activity; type: biochemical; conditions: mean ± SD, triplicate
Text: as §2
Hyaluronidase inhibitory activity of ETME was evaluated spectrophotometrically as reported by Perera et al.[24] with minor modifications. Detailed procedures are described in the supplementary file.
Hyaluronidase inhibitory activity of ETME was evaluated spectrophotometrically as reported by Perera et al., 2018 with minor modifications. […]. The percentage of enzyme inhibition was calculated as follows:
% of inhibition = (Acontrol/Atested sample)/ Acontrol) x 100.
Where Acontrol is the absorbance without addition of the inhibitor and Asample is the absorbance after adding the extract/standard. The IC50 value, the concentration giving 50% inhibition of hyaluronidase activity, was determined by interpolation using the concentration-response curves. […]

## O=C1O[C@H]([C@@H](O)CO)C(O)=C1O [Ascorbic acid, ascorbic acid]
[1]
  FRAP IC50/EC50: 3.9 ± 1.9 µg/mL
[2]
  ABTS IC50/EC50: 21.4 ± 1.6 µg/mL
[3]
  DPPH IC50/EC50: 2.2 ± 1.6 µg/mL

## O=C(O)Cc1ccccc1Nc1c(Cl)cccc1Cl [Diclofenac]
[4]
  Membrane stabilization IC50/EC50: 17.02 ± 1.3 µg/mL
[5]
  Protease IC50/EC50: 25.14 ± 1.2 µg/mL
[6]
  Histamine release IC50/EC50: 17.94 ± 1.4 µg/mL

## COc1ccc2c(c1)c(CC(=O)O)c(C)n2C(=O)c1ccc(Cl)cc1 [Indomethacin]
[7]
  LOX IC50/EC50: 23.4 ± 0.83 µg/mL

## O=c1cc(CO)occ1O [Kojic acid]
[8]
  Tyrosinase IC50/EC50: 52.0 ± 0.98 µg/mL

## O=c1[nH]c(=O)c2c[nH]nc2[nH]1 [Oxypurinol]
[9]
  IC50: 96.6 µM

## O=C([O-])CC([S-])C(=O)[O-].[Au+].[Na+].[Na+] (stereo not shown) [Sodium aurothiomalate]
[10]
  Hyaluronidase IC50/EC50: 20.03 ± 0.96 µg/mL
